biological target: T1, glucocorticoid receptor (Homo sapiens, UniProt P04150); assay: Ligand binding assay (GR BIND)
T1 construct: endogenous in cells
T1 sequence (P04150 1-777): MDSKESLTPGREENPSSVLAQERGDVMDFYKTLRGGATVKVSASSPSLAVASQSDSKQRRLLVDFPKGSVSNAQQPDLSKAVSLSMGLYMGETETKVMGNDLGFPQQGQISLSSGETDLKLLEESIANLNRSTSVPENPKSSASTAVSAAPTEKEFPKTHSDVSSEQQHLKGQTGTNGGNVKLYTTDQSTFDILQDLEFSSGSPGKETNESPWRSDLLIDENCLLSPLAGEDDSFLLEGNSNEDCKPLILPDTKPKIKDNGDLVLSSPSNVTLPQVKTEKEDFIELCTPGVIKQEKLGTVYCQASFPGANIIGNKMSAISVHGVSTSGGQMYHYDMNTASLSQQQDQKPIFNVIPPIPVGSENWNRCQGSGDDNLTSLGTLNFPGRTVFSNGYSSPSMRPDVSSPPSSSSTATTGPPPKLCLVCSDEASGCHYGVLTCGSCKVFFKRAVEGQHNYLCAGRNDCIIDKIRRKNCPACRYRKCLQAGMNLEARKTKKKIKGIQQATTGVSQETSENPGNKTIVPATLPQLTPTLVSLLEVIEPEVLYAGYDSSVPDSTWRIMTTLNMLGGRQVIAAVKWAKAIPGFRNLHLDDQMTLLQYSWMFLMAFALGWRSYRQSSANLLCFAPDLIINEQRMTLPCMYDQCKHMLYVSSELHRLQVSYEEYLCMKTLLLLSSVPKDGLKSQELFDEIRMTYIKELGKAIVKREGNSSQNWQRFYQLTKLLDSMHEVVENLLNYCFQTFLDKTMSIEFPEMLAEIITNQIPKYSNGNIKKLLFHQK
Method in brief: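 Cytosol from freeze–thawed cells in TEGM (pH 7.2, 10 mM molybdate) was incubated overnight at 4 °C with compound and [3H]-dexamethasone trace (added as 6 nM solution), 2% EtOH final. Bound ligand was captured on hydroxylapatite, filtered, washed and scintillation counted. Values were calculated with dexamethasone as reference.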

Ki	Structure (SMILES)
3.7 nM	C[C@]12Cc3cnn(-c4ccc(F)cc4)c3C=C1CC[C@@H]2CN(CCc1ccccc1F)S(=O)(=O)Cc1cccc(C(F)(F)F)c1 [Example 88, N-[2-(2-fluorophenyl)ethyl]-N-{[(4αR,5S)-1-(4-fluorophenyl)-4α-methyl-1,4,4α,5,6,7-hexahydrocyclopenta[f]indazol-5-yl]methyl}-1-[3-(trifluoromethyl)phenyl]methanesulfonamide]
2.4 nM	C[C@]12Cc3cnn(-c4ccc(F)cc4)c3C=C1CC[C@@H]2CN(CCc1ccccc1F)S(=O)(=O)CC(F)(F)F [Example 89, 2,2,2-trifluoro-N-[2-(2-fluorophenyl)ethyl]-N-{[(4αR,5S)-1-(4-fluorophenyl)-4α-methyl-1,4,4α,5,6,7-hexahydrocyclopenta[f]indazol-5-yl]methyl}ethanesulfonamide]
3.6 nM	COc1ccccc1CCN(C[C@H]1CCC2=Cc3c(cnn3-c3ccc(F)cc3)C[C@@]21C)S(=O)(=O)c1ccccc1F [Example 90, 2-fluoro-N-{[(4αR,5S)-1-(4-fluorophenyl)-4α-methyl-1,4,4α,5,6,7-hexahydrocyclopenta[f]indazol-5-yl]methyl}-N-[2-(2-methoxyphenyl)ethyl]benzenesulfonamide]
2 nM	Cc1ccc(CCN(C[C@H]2CCC3=Cc4c(cnn4-c4ccc(F)cc4)C[C@@]32C)S(=O)(=O)c2ccccc2F)cc1 [Example 91, 2-fluoro-N-{[(4αR,5S)-1-(4-fluorophenyl)-4α-methyl-1,4,4α,5,6,7-hexahydrocyclopenta[f]indazol-5-yl]methyl}-N-[2-(4-methylphenyl)ethyl]benzenesulfonamide]
3 nM	C[C@]12Cc3cnn(-c4ccc(F)cc4)c3C=C1CC[C@@H]2CN(CCc1ccccc1Cl)S(=O)(=O)c1ccccc1F [Example 92, N-[2-(2-chlorophenyl)ethyl]-2-fluoro-N-{[(4αR,5S)-1-(4-fluorophenyl)-4α-methyl-1,4,4α,5,6,7-hexahydrocyclopenta[f]indazol-5-yl]methyl}benzenesulfonamide]
2.7 nM	CC(C1CCC2=Cc3c(cnn3-c3ccc(F)cc3)C[C@@]21C)N(CCc1ccccc1F)S(=O)(=O)CC(F)(F)F (stereo partly drawn) [Example 93, 2,2,2-trifluoro-N-[2-(2-fluorophenyl)ethyl]-N-{1-[(4αR)-1-(4-fluorophenyl)-4α-methyl-1,4,4α,5,6,7-hexahydrocyclopenta[f]indazol-5-yl]ethyl}ethanesulfonamide]
2.9 nM	COCCN(C[C@H]1CCC2=Cc3c(cnn3-c3ccc(F)cc3)C[C@@]21C)S(=O)(=O)c1ccccc1F [Example 94, 2-fluoro-N-{[(4αR,5S)-1-(4-fluorophenyl)-4α-methyl-1,4,4α,5,6,7-hexahydrocyclopenta[f]indazol-5-yl]methyl}-N-(2-methoxyethyl)benzenesulfonamide]

— US8299048B2, “Hexahydrocyclopentyl[f]indazole sulfonamides and derivatives thereof as selective glucocorticoid receptor modulators” (Merck Sharp & Dohme Corp., priority 2008, dated 2012)
